Results published in patent US9206161B2, “Bridged bicyclic heteroaryl substituted triazoles useful as Axl inhibitors” (Rigel Pharmaceuticals, Inc., priority 2008, dated 2015).
One block for each compound: values may come before it.

Molecular target: T1, Axl (Homo sapiens, UniProt P30530)
T1 construct: endogenous in cells; host or cells: HeLa cells
T1 sequence (P30530 26-894): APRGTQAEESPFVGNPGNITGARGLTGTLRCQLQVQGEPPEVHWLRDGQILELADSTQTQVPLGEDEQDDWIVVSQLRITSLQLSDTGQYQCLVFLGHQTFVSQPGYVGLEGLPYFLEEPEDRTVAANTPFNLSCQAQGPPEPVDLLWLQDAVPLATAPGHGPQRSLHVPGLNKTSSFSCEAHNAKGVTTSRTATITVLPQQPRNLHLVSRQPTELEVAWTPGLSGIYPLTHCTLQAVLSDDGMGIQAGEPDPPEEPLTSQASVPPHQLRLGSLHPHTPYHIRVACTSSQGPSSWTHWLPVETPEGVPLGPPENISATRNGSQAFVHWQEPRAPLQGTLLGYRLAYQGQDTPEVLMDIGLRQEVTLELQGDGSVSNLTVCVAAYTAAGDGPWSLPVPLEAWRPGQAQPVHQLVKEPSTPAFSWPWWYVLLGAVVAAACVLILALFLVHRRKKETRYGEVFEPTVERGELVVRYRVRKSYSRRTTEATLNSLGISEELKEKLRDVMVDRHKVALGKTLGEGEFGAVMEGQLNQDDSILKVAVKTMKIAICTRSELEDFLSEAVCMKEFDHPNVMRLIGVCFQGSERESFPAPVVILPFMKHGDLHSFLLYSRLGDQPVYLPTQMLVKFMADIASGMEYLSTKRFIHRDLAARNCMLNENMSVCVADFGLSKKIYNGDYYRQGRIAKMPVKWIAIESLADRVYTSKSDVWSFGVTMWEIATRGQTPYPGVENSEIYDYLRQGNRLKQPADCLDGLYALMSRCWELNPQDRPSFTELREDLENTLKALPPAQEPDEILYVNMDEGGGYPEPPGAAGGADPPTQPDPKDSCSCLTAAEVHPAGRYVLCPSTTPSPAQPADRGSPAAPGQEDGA
Assay: Phospho-Akt in-cell Western assay
Format: cell-based
Conditions: Hela cells, Axl antibody cross-linking stimulation, phospho-Akt readout
Procedure: Phospho-Akt in-Cell Western Assay
The compounds of the invention were tested in the following assay for their ability to inhibit Axl activity.
• Cell culture plate: 96 well assay plate (Corning 3610), white, clear bottom, tissue-culture treated. • Cells: Hela cells. • Starvation medium: For Axl stimulation: 0.5% FCS (fetal calf serum) in DMEM, plus Axl/Fc (extracellular domain of AXL fused to immunoglobulin Fc region) (R&D, 154-AL) 500 ng/mL. • For EGF (epidermal growth factor) stimulation: 0.5% FCS in DMEM (Dulbecco's modified Eagles medium). • Poly-L-Lysine 0.01% solution (the working solution): 10 μg/ml, dilute In PBS (phosphate buffered saline). • Axl antibody cross-linking: • 1st: Mouse anti-Axl (R&D, MAB154). • 2nd: Biotin-SP-conjugated AffiniPure goat anti-mouse IgG (H+L) (Jackson ImmunoResearch #115-065-003). • Fixing buffer: 4% formaldehyde in PBS. • Wash buffer: 0.1% TritonX-100 in PBS. • Quenching buffer: 3% H2O2, 0.1% Azide in wash buffer, Azide and hydrogen peroxide (H2O2) are added fresh. • Blocking buffer: 5% BSA in TBST (tris buffered saline plus 0.1% Tween 20). • Primary antibody: Rabbit anti-human Phospho-Akt antibody (Cell Signaling 9271): 1×250 diluted in blocking buffer. • Secondary antibody: HRP (horse radish peroxidase)-conjugated Goat anti-Rabbit secondary, stock solution: Jackson ImmunoResearch (Goat anti-Rabbit HRP, #111-035-144) 1:1 diluted in glycerol, store at −20° C. The working solution: 1×2000 dilution of stock in blocking buffer. • Chemiluminescent working solution (Pierce, 37030): SuperSignal ELISA (enzyme linked immunosorbant assay) Pico Chemiluminescent substrate. • Crystal Violet solution: Stock: 2.5% Crystal violet in methanol, filtered and kept at ambient temperature. The working solution: dilute the stock 1:20 with PBS immediately before use. • 10% SDS: working solution: 5% SDS (sodium dodecylsulfate), diluted in PBS Methods: Day 1:
A 96 well TC (tissue culture treated) plate was coated with 10 μg/mL poly-L-Lysine at 37° C. for 30 min, washed twice with PBS, and air-dried for 5 minutes before cells were added. Hela cells were seeded at 10,000 cells/well and the cells were starved in 100 μL starvation medium containing Axl/Fc for 24 hrs.
The cells were pre-treated with test compounds by adding 100 μL of 2× test compound to the starvation medium on the cells. The cells were incubated at 37° C. for 1 hr before stimulation.
The cells were stimulated by Axl-antibody cross-linking as follows: A 5×1st/2nd Axl antibody mixture was made (37.5 μg/mL 1st/100 μg/mL 2nd) in starvation medium and nutated at 4° C. with thorough mixing for 1-2 hours for clustering. The resulting mix was warmed to 37° C. 50 μL of 5× Axl 1st/2nd of antibody cluster was added to the cells and the cells were incubated at 37° C. for 5 min.
After 5 minutes stimulation, the plate was flicked to remove medium and the plate was tapped onto paper towels. Formaldehyde (4.0% in PBS, 100 μL) was added to fix the cells and the cells were incubated at ambient temperature for 20 min without shaking.
The cells were washed with a plate washer buffer to remove the formaldehyde solution. The plate was flicked to removed excess wash buffer and tapped onto paper towels. Quenching buffer (100 μL) was added to each well and the cells were incubated at ambient temperature for 20 minutes without shaking.
The cells were washed with a plate washer buffer to remove the quenching buffer. Blocking buffer (100 μL) was added and the cells were incubated at ambient temperature for at least an hour with gentle shaking.
The cells were washed with a plate washer buffer and diluted primary antibody (50 μL) was added to each well (blocking buffer was added to the negative control wells instead). The plates were incubated overnight at 4° C. with gentle shaking.
The wash buffer was removed, diluted secondary antibody (100 μL) was added, and the cells were incubated at ambient temperature for 1 hour with gentle shaking. […]

Structure (SMILES): COc1cccc(-c2cc(-n3nc(Nc4ccc(N5CCC(N6CCCC6)CC5)c(F)c4)nc3N)nc3c2N2CCC3CC2)c1 [Compound 11, 1-(1,4-ethano-8-(3-methoxyphenyl)-1,2,3,4-tetrahydro-1,5-naphthyridin-6-yl)-N^3-(4-(4-(pyrrolidin-1-yl)piperidinyl)-3-fluorophenyl)-1H-1,2,4-triazole-3,5-diamine]
IC50 (Table 3, formula (II)): < 1000 nM

Structure (SMILES): Nc1nc(Nc2ccc3c(c2)CC[C@@H](N)CC3)nn1-c1cc(-c2ccccc2)c2c(n1)C1CCN2CC1 [Compound 26, (7S)-1-(1,4-ethano-8-phenyl-1,2,3,4-tetrahydro-1,5-naphthyridin-6-yl)-N^3-(7-amino-6,7,8,9-tetrahydro-5H-benzo[7]annulene-2-yl)-1H-1,2,4-triazole-3,5-diamine]
IC50 (Table 4, formula (III)): < 1000 nM

Structure (SMILES): Nc1nc(Nc2cnc3c(c2)CNCC3)nn1-c1cc(-c2ccccc2)c2c(n1)C1CCN2CC1 [Compound 2, 1-(1,4-ethano-8-phenyl-1,2,3,4-tetrahydro-1,5-naphthyridin-6-yl)-N^3-(5,6,7,8-tetrahydro-1,6-naphthyridine-3-yl)-1H-1,2,4-triazole-3,5-diamine]
IC50 (Table 2, formula (Ib)): < 1000 nM

Structure (SMILES): Cc1ccccc1-c1cc(-n2nc(Nc3ccc(N4CCC(N5CCCC5)CC4)c(F)c3)nc2N)nc2c1N1CCC2CC1 [Compound 12, 1-(1,4-ethano-8-(2-methylphenyl)-1,2,3,4-tetrahydro-1,5-naphthyridin-6-yl)-N^3-(4-(4-(pyrrolidin-1-yl)piperidinyl)-3-fluorophenyl)-1H-1,2,4-triazole-3,5-diamine]
IC50 (Table 3, formula (II)): < 1000 nM

Structure (SMILES): Nc1nc(Nc2ccc(N3CCC(N4CCCC4)CC3)c(F)c2)nn1-c1nnc(Cl)c2c1C1CCC2CC1 [Compound 13, 1-(4-chloro-5,8-ethano-5,6,7,8-tetrahydrophthalazine-1-yl)-N^3-(4-(4-(pyrrolidin-1-yl)piperidinyl)-3-fluorophenyl)-1H-1,2,4-triazole-3,5-diamine]
IC50 (Table 5, formula (IVa)): < 1000 nM

Structure (SMILES): Nc1nc(Nc2ccc(N3CCC(N4CCCC4)CC3)c(F)c2)nn1-c1cc(-c2ccccc2)c2c(n1)C1CCN(CC1)C2 [Compound 7, 1-(6,9-ethano-4-phenyl-6,7,8,9-tetrahydro-5H-pyrido[3,2-c]azepin-2-yl)-N^3-(4-(4-(pyrrolidin-1-yl)piperidinyl)-3-fluorophenyl)-1H-1,2,4-triazole-3,5-diamine]
IC50 (Table 3, formula (II)): < 1000 nM

Continued, values first:

IC50 (Table 8, formula (VI)): < 1000 nM
Structure (SMILES): Nc1nc(Nc2ccc3c(c2)CCC(N2CCCC2)CC3)nn1-c1nnc(-c2ccncc2)c2c1C1CCC2CC1 (stereo not shown) [Compound 34, 1-(4-(pyridin-4-yl)-5,8-ethano-5,6,7,8-tetrahydrophthalazine-1-yl)-N^3-(7-(pyrrolidin-1-yl)-6,7,8,9-tetrahydro-5H-benzo[7]annulene-2-yl)-1H-1,2,4-triazole-3,5-diamine]

IC50 (Table 8, formula (VI)): < 1000 nM
Structure (SMILES): Nc1nc(Nc2ccc3c(c2)CCC(N2CCCC2)CC3)nn1-c1nnc(-c2ccccc2)c2c1C1CCC2CC1 (stereo not shown) [Compound 28, 1-(4-phenyl-5,8-ethano-5,6,7,8-tetrahydrophthalazine-1-yl)-N^3-(7-(pyrrolidin-1-yl)-6,7,8,9-tetrahydro-5H-benzo[7]annulene-2-yl)-1H-1,2,4-triazole-3,5-diamine]

IC50 (Table 4, formula (III)): < 1000 nM
Structure (SMILES): CCCN(CCC)[C@H]1CCc2ccc(Nc3nc(N)n(-c4cc(-c5ccccc5)c5c(n4)C4CCN5CC4)n3)cc2CC1 [Compound 39, (7S)-1-(1,4-ethano-8-phenyl-1,2,3,4-tetrahydro-1,5-naphthyridin-6-yl)-N^3-(7-(dipropylamino)-6,7,8,9-tetrahydro-5H-benzo[7]annulene-2-yl)-1H-1,2,4-triazole-3,5-diamine]

IC50 (Table 7, formula (V)): 1000 to 10000 nM
Structure (SMILES): C[C@H]1CN(c2ccc(Nc3nc(N)n(-c4nnc(-c5ccccc5)c5c4C4CCC5CC4)n3)cn2)CCN1CC1CC1 [Compound 21, (3S)-1-(4-phenyl-5,8-ethano-5,6,7,8-tetrahydrophthalazine-1-yl)-N^3-(6-(4-(cyclopropylmethyl)-3-methylpiperazin-1-yl)pyridin-3-yl)-1H-1,2,4-triazole-3,5-diamine]

IC50 (Table 5, formula (IVa)): < 1000 nM
Structure (SMILES): Nc1nc(Nc2ccc(N3CCC(N4CCCC4)CC3)c(F)c2)nn1-c1nnc(-c2ccncc2)c2c1C1CCC2CC1 [Compound 18, 1-(4-(pyridin-4-yl)-5,8-ethano-5,6,7,8-tetrahydrophthalazine-1-yl)-N^3-(4-(4-(pyrrolidin-1-yl)piperidinyl)-3-fluorophenyl)-1H-1,2,4-triazole-3,5-diamine]

IC50 (Table 8, formula (VI)): < 1000 nM
Structure (SMILES): Cc1cc(F)ccc1-c1nnc(-n2nc(Nc3ccc4c(c3)CCC(N3CCCC3)CC4)nc2N)c2c1C1CCC2CC1 (stereo not shown) [Compound 33, 1-(4-(4-fluoro-2-methylphenyl)-5,8-ethano-5,6,7,8-tetrahydrophthalazine-1-yl)-N^3-(7-(pyrrolidin-1-yl)-6,7,8,9-tetrahydro-5H-benzo[7]annulene-2-yl)-1H-1,2,4-triazole-3,5-diamine]

IC50 (Table 8, formula (VI)): < 1000 nM
Structure (SMILES): Nc1nc(Nc2ccc3c(c2)CCC(N2CCCC2)CC3)nn1-c1nnc(Cl)c2c1C1CCC2CC1 (stereo not shown) [Compound 27, 1-(4-chloro-5,8-ethano-5,6,7,8-tetrahydrophthalazine-1-yl)-N^3-(7-(pyrrolidin-1-yl)-6,7,8,9-tetrahydro-5H-benzo[7]annulene-2-yl)-1H-1,2,4-triazole-3,5-diamine]
